Measured values from patent US5840684A, “Glycopeptide antibiotic derivatives” (Eli Lilly and Company, priority 1995, dated 1998).
Values after ≈ are worked out from the molar mass of the structure shown.

Legend:
[1] = system: Staphylococcus aureus S13E; type: cell-based
Description: (§1) The MIC's were determined using a standard broth micro-dilution assay.

[2] = system: Entercoccus faecium 180-1; assay: broth micro-dilution MIC; type: cell-based
Description: as §1

Entercoccus faecium 276 = assay: broth micro-dilution MIC; type: cell-based
Description: as §1

[3] = system: Staphylococcus aureus 446; assay: broth micro-dilution MIC; type: cell-based
Description: as §1

[4] = system: Staphylococcus aureus 489; assay: broth micro-dilution MIC; type: cell-based
Description: as §1

[5] = system: Staphylococcus aureus SA1199A; assay: broth micro-dilution MIC; type: cell-based
Description: as §1

[6] = system: Staphylococcus aureus SA1199; assay: broth micro-dilution MIC; type: cell-based
Description: as §1

[7] = system: Staphylococcus aureus X778; assay: broth micro-dilution MIC; type: cell-based
Description: as §1

Entercoccus faecium 180 = assay: broth micro-dilution MIC; type: cell-based; conditions: Entercoccus faecium 180
Description: (§2) The formula I compounds have in vitro and in vivo activity against Gram-positive pathogenic bacteria. The MIC's were determined using a standard broth micro-dilution assay.

Entercoccus faecium 2041 = assay: broth micro-dilution MIC; type: cell-based; conditions: Entercoccus faecium 2041
Description: as §2

[8] = system: Staphylococcus epidermidis 270; assay: broth micro-dilution MIC; type: cell-based
Description: as §2

[9] = system: Staphylococcus haemolyticus 105; assay: broth micro-dilution MIC; type: cell-based
Description: as §2

[10] = system: Staphylococcus haemolyticus 415; assay: broth micro-dilution MIC; type: cell-based
Description: as §2

[11] = system: vancomycin-resistant enterococci; assay: broth micro-dilution, mean geometric MIC; type: cell-based, Enterococcus faecium and Enterococcus faecalis; conditions: enterococci, 24-hour incubation
[12] = system: vancomycin-susceptible enterococci; assay: broth micro-dilution, mean geometric MIC; type: cell-based, Enterococcus faecium and Enterococcus faecalis; conditions: enterococci, 24-hour incubation
[13] = system: Staphylococcus aureus SA1199B; type: cell-based
Description: as §1

[14] = system: Staphylococcus aureus 447; assay: broth micro-dilution MIC; type: cell-based
Description: as §1

[15] = system: Staphylococcus aureus X400; assay: broth micro-dilution MIC; type: cell-based
Description: as §1

[16] = system: Enterococcus gallinarum 245; assay: broth micro-dilution MIC; type: cell-based; conditions: Enterococcus gallinarum 245
Description: as §2

[17] = system: Streptococcus pneumoniae P1; assay: broth micro-dilution MIC; type: cell-based
Description: as §2

[18] = system: Streptococcus pyogenes C203; assay: broth micro-dilution MIC; type: cell-based
Description: as §1

Row | Structure (SMILES) | MIC [1] | MIC [2] | MIC (Entercoccus faecium 276) | MIC [3] | MIC [4] | MIC [5] | MIC [7] | MIC (Entercoccus faecium 180) | MIC (Entercoccus faecium 2041) | MIC [8] | MIC [9] | MIC [10] | mean geometric MIC, Vancomycin Resistant Strains [11] | mean geometric MIC, Vancomycin Sensitive Strains [12] | MIC [13] | MIC [14] | MIC [15] | MIC [16] | MIC [17] | MIC [18] | further results
1 | CNC(CC(C)C)C(=O)NC1C(=O)NC(CC(N)=O)C(=O)NC2C(=O)NC3C(=O)NC(C(=O)NC(C(=O)O)c4cc(O)cc(O)c4-c4cc3ccc4O)C(OC3CC(C)(N)C(O)C(C)O3)c3ccc(c(Cl)c3)Oc3cc2cc(c3OC2OC(CO)C(O)C(O)C2OC2CC(C)(NCCc3ccc(Oc4ccccc4)cc3)C(O)C(C)O2)Oc2ccc(cc2Cl)C1O (stereo not drawn) [Compound 33] | ≤ 0.06 µg/mL | ≤ 0.06 µg/mL | ≤ 0.06 µg/mL | 4 µg/mL (≈ 2.24 µM) | ≤ 0.06 µg/mL | ≤ 0.06 µg/mL | 0.5 µg/mL (≈ 0.28 µM) | 2 µg/mL (≈ 1.12 µM) | ≤ 0.06 µg/mL | 2 µg/mL (≈ 1.12 µM) | 2 µg/mL (≈ 1.12 µM) | 8 µg/mL (≈ 4.47 µM) | 2.8 µg/mL | 0.18 µg/mL |  |  |  |  |  |  | MIC [6]: 1 µg/mL (≈ 0.559 µM)
2 | CCOc1ccc2ccccc2c1CNC1(C)CC(OC2C(Oc3c4cc5cc3Oc3ccc(cc3Cl)C(OC3CC(C)(N)C(O)C(C)O3)C3NC(=O)C(NC(=O)C5NC(=O)C(CC(N)=O)NC(=O)C(NC(=O)C(CC(C)C)NC)C(O)c5ccc(c(Cl)c5)O4)c4ccc(O)c(c4)-c4c(O)cc(O)cc4C(C(=O)O)NC3=O)OC(CO)C(O)C2O)OC(C)C1O (stereo not drawn) [Compound 60] |  | ≤ 0.06 µg/mL | 0.5 µg/mL (≈ 0.281 µM) | 1 µg/mL (≈ 0.563 µM) | 0.5 µg/mL (≈ 0.281 µM) | ≤ 0.06 µg/mL |  | 4 µg/mL (≈ 2.25 µM) |  | 2 µg/mL (≈ 1.13 µM) |  | 16 µg/mL (≈ 9.01 µM) | 19 µg/mL | 3.0 µg/mL | 0.5 µg/mL (≈ 0.281 µM) | 2 µg/mL (≈ 1.13 µM) | 0.5 µg/mL (≈ 0.281 µM) | 16 µg/mL (≈ 9.01 µM) | ≤ 0.06 µg/mL |  | 
3 | CNC(CC(C)C)C(=O)NC1C(=O)NC(CC(N)=O)C(=O)NC2C(=O)NC3C(=O)NC(C(=O)NC(C(=O)O)c4cc(O)cc(O)c4-c4cc3ccc4O)C(OC3CC(C)(N)C(O)C(C)O3)c3ccc(c(Cl)c3)Oc3cc2cc(c3OC2OC(CO)C(O)C(O)C2OC2CC(C)(NCCc3ccc(Oc4ccccc4)cc3)C(O)C(C)O2)Oc2ccc(cc2Cl)C1O (stereo not drawn) [Compound 63] |  | ≤ 0.06 µg/mL | 0.5 µg/mL (≈ 0.28 µM) | 0.5 µg/mL (≈ 0.28 µM) | 8 µg/mL (≈ 4.47 µM) |  |  |  |  | 1 µg/mL (≈ 0.559 µM) | 4 µg/mL (≈ 2.24 µM) | 8 µg/mL (≈ 4.47 µM) | 54 µg/mL | 0.66 µg/mL | 0.5 µg/mL (≈ 0.28 µM) | 1 µg/mL (≈ 0.559 µM) | ≤ 0.06 µg/mL | 8 µg/mL (≈ 4.47 µM) | ≤ 0.06 µg/mL | ≤ 0.06 µg/mL | 
4 | CNC(CC(C)C)C(=O)NC1C(=O)NC(CC(N)=O)C(=O)NC2C(=O)NC3C(=O)NC(C(=O)NC(C(=O)O)c4cc(O)cc(O)c4-c4cc3ccc4O)C(OC3CC(C)(N)C(O)C(C)O3)c3ccc(c(Cl)c3)Oc3cc2cc(c3OC2OC(CO)C(O)C(O)C2OC2CC(C)(NCc3ccc(C)c(C)c3)C(O)C(C)O2)Oc2ccc(cc2Cl)C1O (stereo not drawn) [Compound 76] |  | ≤ 0.06 µg/mL | ≤ 0.06 µg/mL |  | ≤ 0.06 µg/mL |  |  | 0.5 µg/mL (≈ 0.292 µM) | ≤ 0.06 µg/mL |  | 2 µg/mL (≈ 1.17 µM) | 4 µg/mL (≈ 2.34 µM) | 8.0 µg/mL |  |  | 0.5 µg/mL (≈ 0.292 µM) |  | 4 µg/mL (≈ 2.34 µM) | ≤ 0.06 µg/mL | ≤ 0.06 µg/mL | MIC [6]: ≤ 0.06 µg/mL
5 | CNC(CC(C)C)C(=O)NC1C(=O)NC(CC(N)=O)C(=O)NC2C(=O)NC3C(=O)NC(C(=O)NC(C(=O)O)c4cc(O)cc(O)c4-c4cc3ccc4O)C(OC3CC(C)(N)C(O)C(C)O3)c3ccc(c(Cl)c3)Oc3cc2cc(c3OC2OC(CO)C(O)C(O)C2OC2CC(C)(NCc3ccc(Cl)c(C(=O)c4ccccc4)c3Cl)C(O)C(C)O2)Oc2ccc(cc2Cl)C1O (stereo not drawn) [Compound 133] | 1 µg/mL (≈ 0.539 µM) | ≤ 0.06 µg/mL | 1 µg/mL (≈ 0.539 µM) | 2 µg/mL (≈ 1.08 µM) | 1 µg/mL (≈ 0.539 µM) |  | 2 µg/mL (≈ 1.08 µM) | 1 µg/mL (≈ 0.539 µM) |  | 1 µg/mL (≈ 0.539 µM) | 2 µg/mL (≈ 1.08 µM) | 2 µg/mL (≈ 1.08 µM) | 4.0 µg/mL | 0.13 µg/mL | 2 µg/mL (≈ 1.08 µM) | 1 µg/mL (≈ 0.539 µM) | 0.5 µg/mL (≈ 0.269 µM) | 2 µg/mL (≈ 1.08 µM) | ≤ 0.06 µg/mL | ≤ 0.06 µg/mL | 
6 | CNC(CC(C)C)C(=O)NC1C(=O)NC(CC(N)=O)C(=O)NC2C(=O)NC3C(=O)NC(C(=O)NC(C(=O)O)c4cc(O)cc(O)c4-c4cc3ccc4O)C(OC3CC(C)(N)C(O)C(C)O3)c3ccc(c(Cl)c3)Oc3cc2cc(c3OC2OC(CO)C(O)C(O)C2OC2CC(C)(NCc3ccc(Nc4ccccc4)cc3)C(O)C(C)O2)Oc2ccc(cc2Cl)C1O (stereo not drawn) [Compound 160] | 1 µg/mL (≈ 0.564 µM) | ≤ 0.06 µg/mL | 2 µg/mL (≈ 1.13 µM) | 2 µg/mL (≈ 1.13 µM) | 0.21 µg/mL (≈ 0.118 µM) |  | 4 µg/mL (≈ 2.26 µM) | 0.5 µg/mL (≈ 0.282 µM) | ≤ 0.06 µg/mL | 1 µg/mL (≈ 0.564 µM) | 8 µg/mL (≈ 4.51 µM) | 8 µg/mL (≈ 4.51 µM) | 9.5 µg/mL | 0.22 µg/mL | ≤ 0.06 µg/mL | 1 µg/mL (≈ 0.564 µM) | 4 µg/mL (≈ 2.26 µM) | 8 µg/mL (≈ 4.51 µM) | ≤ 0.06 µg/mL | ≤ 0.06 µg/mL | 
7 | CNC(CC(C)C)C(=O)NC1C(=O)NC(CC(N)=O)C(=O)NC2C(=O)NC3C(=O)NC(C(=O)NC(C(=O)O)c4cc(O)cc(O)c4-c4cc3ccc4O)C(OC3CC(C)(N)C(O)C(C)O3)c3ccc(c(Cl)c3)Oc3cc2cc(c3OC2OC(CO)C(O)C(O)C2OC2CC(C)(NCC3=CCC(C(C)C)CC3)C(O)C(C)O2)Oc2ccc(cc2Cl)C1O (stereo not drawn) [Compound 171] | ≤ 0.06 µg/mL | ≤ 0.06 µg/mL | 0.125 µg/mL (≈ 0.0723 µM) | 1 µg/mL (≈ 0.578 µM) | 0.5 µg/mL (≈ 0.289 µM) | ≤ 0.06 µg/mL | ≤ 0.06 µg/mL | 1 µg/mL (≈ 0.578 µM) | ≤ 0.06 µg/mL | 1 µg/mL (≈ 0.578 µM) | 4 µg/mL (≈ 2.31 µM) | 8 µg/mL (≈ 4.63 µM) | 9.5 µg/mL | 0.22 µg/mL |  | 1 µg/mL (≈ 0.578 µM) | ≤ 0.06 µg/mL | 8 µg/mL (≈ 4.63 µM) | ≤ 0.06 µg/mL | ≤ 0.06 µg/mL | 
8 | CNC(CC(C)C)C(=O)NC1C(=O)NC(CC(N)=O)C(=O)NC2C(=O)NC3C(=O)NC(C(=O)NC(C(=O)O)c4cc(O)cc(O)c4-c4cc3ccc4O)C(OC3CC(C)(N)C(O)C(C)O3)c3ccc(c(Cl)c3)Oc3cc2cc(c3OC2OC(CO)C(O)C(O)C2OC2CC(C)(NCC3CCC(COCc4ccccc4)CC3)C(O)C(C)O2)Oc2ccc(cc2Cl)C1O (stereo not drawn) [Compound 239] | 0.5 µg/mL (≈ 0.276 µM) | ≤ 0.06 µg/mL |  | 1 µg/mL (≈ 0.553 µM) | 0.5 µg/mL (≈ 0.276 µM) | ≤ 0.06 µg/mL |  | ≤ 0.06 µg/mL | ≤ 0.06 µg/mL |  | 1 µg/mL (≈ 0.553 µM) | 1 µg/mL (≈ 0.553 µM) | 2.8 µg/mL | 0.095 µg/mL | 0.5 µg/mL (≈ 0.276 µM) | 0.5 µg/mL (≈ 0.276 µM) |  | 1 µg/mL (≈ 0.553 µM) | ≤ 0.06 µg/mL |  | MIC [6]: 0.5 µg/mL (≈ 0.276 µM)
9 | CNC(CC(C)C)C(=O)NC1C(=O)NC(CC(N)=O)C(=O)NC2C(=O)NC3C(=O)NC(C(=O)NC(C(=O)O)c4cc(O)cc(O)c4-c4cc3ccc4O)C(OC3CC(C)(N)C(O)C(C)O3)c3ccc(c(Cl)c3)Oc3cc2cc(c3OC2OC(CO)C(O)C(O)C2OC2CC(C)(NCc3ccc(Oc4ccc(Cl)cc4)cc3)C(O)C(C)O2)Oc2ccc(cc2Cl)C1O (stereo not drawn) [Compound 240] | 0.5 µg/mL (≈ 0.276 µM) | ≤ 0.06 µg/mL | 0.5 µg/mL (≈ 0.276 µM) | 1 µg/mL (≈ 0.553 µM) | 1 µg/mL (≈ 0.553 µM) | ≤ 0.06 µg/mL | 0.5 µg/mL (≈ 0.276 µM) | ≤ 0.06 µg/mL | ≤ 0.06 µg/mL |  | 1 µg/mL (≈ 0.553 µM) | 2 µg/mL (≈ 1.11 µM) | 1.19 µg/mL | 0.055 µg/mL |  | 0.5 µg/mL (≈ 0.276 µM) |  | 2 µg/mL (≈ 1.11 µM) | ≤ 0.06 µg/mL |  | MIC [6]: 0.5 µg/mL (≈ 0.276 µM)
